Experimental data: patent US20200000976A1, “A MEDICAL IMPLANT AND A METHOD OF COATING A MEDICAL IMPLANT” (priority 2016, published 2020)

Experiments:
[1] = Palacos cement; cited from earlier work
[2] = system: osteoblasts derived from trabecular bone; conditions: cited from earlier work
[3] = Palacos cement; cited from earlier work; remark: listed apart in the source
[4] = binding and release of antimicrobial silver on Ti, PCL and PEEK (previous in house work); type: physicochemical

Compound | effects at high concentrations [1] | elution from cement at low doses [3] | low levels with no or little effect on the replication of osteoblasts [2] | other results
gentamicin | local cytotoxic effects | very little elution occurs |  | levels impeding 3H-thymidine levels [2]: > 100 mL⁻¹
[Ag] [antimicrobial silver, silver] |  |  |  | time of release above MIC [4]: 40 days; released level (above MIC) ([4]; for 40 days): above 1 ug/mL
NC[C@H]1O[C@H](O[C@H]2[C@H](O)[C@@H](O[C@H]3O[C@H](CO)[C@@H](O)[C@H](N)[C@H]3O)[C@H](N)C[C@@H]2N)[C@H](N)C[C@@H]1O [Tobramycin, tobramycin] |  |  | < 200 µg/mL | higher concentrations at which replication decreases and eventually cell death occurs [2]: > 400 µg/mL
teicoplanin | local cytotoxic effects | very little elution occurs |  | 
CN[C@H](CC(C)C)C(=O)N[C@H]1C(=O)N[C@@H](CC(N)=O)C(=O)N[C@H]2C(=O)N[C@H]3C(=O)N[C@H](C(=O)N[C@H](C(=O)O)c4cc(O)cc(O)c4-c4cc3ccc4O)[C@H](O)c3ccc(c(Cl)c3)Oc3cc2cc(c3O[C@@H]2O[C@H](CO)[C@@H](O)[C@H](O)[C@H]2O[C@H]2C[C@](C)(N)[C@H](O)[C@H](C)O2)Oc2ccc(cc2Cl)[C@H]1O [vancomycin] |  |  | < 1 µg/mL | high concentrations at which cell death of osteoblasts occurs [2]: 10,000 /mL
